The nature of series [1]: Body weight change in MV4-11 xenograft mice. It counts as in vivo, NOD/SCID mice. Particulars: 50 and 100 mpk, PO. The procedure:
A total of 48 NOD/SCID female mice of 6-8 weeks age and weighing approximately 18 to 22 g, purchased from HFK (Beijing HFK Bio-Technology Co. Ltd.), were used for tumor inoculation.
Each mouse was inoculated subcutaneously at the right flank with MV4-11 tumor cells (1×10^7 cells) in mixture of 100 ul PBS and 100 ul of Matrigel™ for tumor development. A total of […] mice were used for each group. The amounts of treated compounds are represented in milligram (mg) of compound per kilogram (kg) of animal body weight (mg/kg, mpk). Administration route of the test compound was PO (oral) injection. Three groups, i.e., vehicle group (Control group), 50 mpk group (treatment at 50 mpk of compound 1 through PO injection) and 100 mpk group (treatment at 100 mpk of compound 1 through PO injection) of mice were used. The overall administration schedule was 2 cycles of treatment for 5 days (5 d ON), followed by 2 days of non-treatment (2 d OFF).

In another series the test system is Daudi (B lymphoma). Briefly: Anti-proliferative activity, Daudi. In kind it is cell-based. Particulars: Homo sapiens, read-out: Cell proliferation, IC50.
In series [2] the test system is MOLM13 (acute myeloid Leukemia). Briefly: Anti-proliferative activity, MOLM13. In kind it is cell-based. As to conditions: Homo sapiens, MOLM-13, read-out: Cell proliferation, IC50.
Series [3] is described as follows: Human liver microsomal stability/clearance. It counts as in vitro ADME. Particulars: human liver microsomes; first value of Human/Mouse cell; read-out: Liver microsomal clearance (Human).
Series [4] deals with RS4;11 (acute lymphoblastic leukemia). Briefly: Anti-proliferative activity, RS4;11. In kind it is cell-based. As to conditions: Homo sapiens, read-out: Cell proliferation, IC50.
The nature of series [5]: Animal pharmacokinetics in ICR mice. It counts as in vivo. As to conditions: mouse; for AUC / MRT / clearance / bioavailability: ICR, in vivo. The procedure: Pharmacokinetics of the compounds of 1, 2, 7, 8 11 and 15 were evaluated in ICR mice (6˜8 weeks, 20˜25 g) following intravenous (IV) administration at 10 mg/kg and per oral (PO) administration at 10 mg/kg dose level, respectively. Especially, the additional dose level of Compound 1 was 30 mg/kg.
For serum compound analysis, blood samples were collected by cardiac puncture over 24 hr time course. 20 μL of spiked plasma was added into a 96-well plate, adding ten volumes of internal standard (IS) in acetonitrile (ACN) to the obtained precipitated protein mixed thoroughly, centrifuged at 4,000 rpm for 10 min. 150 μL of supernatant thus obtained was transferred to another pre-labeled 96-well plate, mixed with 150 μL of water. 5 μL or 10 μL of the mixture was injected into the LC-MS system under the following conditions:
Column: API-4000+Waters UPLC (TCLM08);
Lower limit of quantification (LLOQ) was at 1 ng/mL. Pharmacokinetic parameters of half-life (T1/2), clearance (CL), maximum plasma concentration (Cmax), mean residence time (MRT) and bioavailability (F %), plasma exposure (AUC) of the compound were calculated using Phoenix WinNonlin 6.3 (non-compartmental model).

Regarding `COc1ccc2c(c1)C(c1ccc(Cl)cc1)=N[C@@H](COS(C)(=O)=O)c1nnc(C)n1-2` [Compound 1, (R)-(6-(4-chlorophenyl)-8-methoxy-1-methyl-4H-benzo[f]-[1,2,4]triazolo[4,3-a][1,4]diazepin-4-yl)methyl methanesulfonate], the “BW change (%) (in words)” value in series [1] is on record as “very low”. Also, the IC50 in the series with Daudi (B lymphoma) stood at 5.09 µM; in series [2] it was 1.52 µM; in series [4], 3.14 µM. Moreover, the microsomal CLint at 1 µM in series [3] was found to be 2.3 µL/min/mg. In addition, the AUC in series [5] (IV, 10 mg/kg) stood at 74 µM·h; in series [5] (IV, 30 mg/kg) it was 302 µM·h; in series [5] (PO, 10 mg/kg), 76 µM·h; in series [5] (PO, 30 mg/kg), 260 µM·h. The MRT in series [5] (IV, 10 mg/kg) was determined as 4.7 h; in series [5] (PO, 10 mg/kg), 6.2 h. Also, the clearance in series [5] (IV, 10 mg/kg) came to 5.1 mL/min/kg; in series [5] (IV, 30 mg/kg), 3.7 mL/min/kg. For the same compound, the bioavailability in series [5] (PO, 10 mg/kg) is 103%; in series [5] (PO, 30 mg/kg) it was 86.2%. Moreover, in series [5] (FIG. 1, 10 and 30 mg/kg), the “dose linearity in plasma exposure (in words)” value is “good dose linearity in plasma exposure”.

The values above are taken from patent US9884874B2, “Bromodomain-inhibiting compounds and pharmaceutical composition comprising same for preventing or treating a cancer” (KAINOS MEDICINE, INC., priority 2014, dated 2018).
